{"source": "patent US7928206B2", "about": "(priority 2002, dated 2011)", "molecules": {"B1": {"name": "rTOM-TK1: purified recombinant tomato (Lycopersicum esculentum) thymidine kinase, SEQ ID NO: 4 (protein, listed as Lycopersicon esculentum)", "chain": "MAFSSSARNPVDLRNGSKNSFCPVGEIHVIVGPMFAGKTTALLRRVNLESNDGRNVVLIKSSKDARYAVDAVVTHDGTRFPCWSLPDLSSFKQRFGKDAYEKVDVIGIDEAQFFGDLYEFCCNAADFDGKIIVVAGLDGDYLRKSFGSVLDIIPLADTVTKLTARCELCNRRAFFTFRKTNETETELIGGADIYMPVCRQHYVNGQSVNESAKMVLESHKVSNELILESPLVDP"}, "B2": {"name": "rAT-TK1a: purified recombinant Arabidopsis thaliana thymidine kinase TK1a, SEQ ID NO: 9 (protein, listed as Arabidopsis thaliana)", "chain": "MATLKASFLIKTLDSDVTGDFLSDLERRGSGAVHVIMGPMFSGKSTSLLRRIKSEISDGRSVAMLKSSKDTRYAKDSVVTHDGIGFPCWALPDLMSFPEKFGLDAYNKLDVIGIDEAQFFGDLYEFCCKVADDDGKIVIVAGLDGDYLRRSFGAVLDIIPIADSVTKLTARCEVCGHKAFFTLRKNCDTRTELIGGADVYMPVCRKHYITNHIVIKASKKVLEDSDKARAESCVAATI"}}, "key": {"[1]": {"target": "rHSV1-TK, human Herpes simplex virus type 1 thymidine kinase (Human alphaherpesvirus 1 strain 17, UniProt P0DTH5)", "sequence (P0DTH5 whole entry)": "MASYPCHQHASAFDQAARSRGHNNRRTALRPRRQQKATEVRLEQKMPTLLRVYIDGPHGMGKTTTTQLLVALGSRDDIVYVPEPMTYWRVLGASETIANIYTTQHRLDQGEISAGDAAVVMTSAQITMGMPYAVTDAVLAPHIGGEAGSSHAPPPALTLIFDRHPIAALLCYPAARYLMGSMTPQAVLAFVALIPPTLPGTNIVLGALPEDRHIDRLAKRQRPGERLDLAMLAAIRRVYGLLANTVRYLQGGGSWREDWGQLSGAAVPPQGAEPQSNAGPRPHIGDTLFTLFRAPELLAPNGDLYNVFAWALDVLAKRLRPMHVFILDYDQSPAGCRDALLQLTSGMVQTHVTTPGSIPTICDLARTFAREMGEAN", "assay": "Kinetic constants of purified recombinant thymidine kinase (rHSV1-TK)", "type": "biochemical", "details": "substrate AZT", "experimental": "(§1) Transformed KY895 were grown to an OD600 nm of 0.5-06 in LB/Ampicillin (100 μg/ml) medium at 37° C. and protein expression was induced by addition of IPTG to make 100 μM. The cells were further grown for 4 h at 25° C. and subsequently harvested by centrifugation."}, "[2]": {"target": "rTOM-TK1, tomato (Lycopersicum esculentum) thymidine kinase, recombinant wild type, SEQ ID NO: 4 (Solanum lycopersicum, UniProt Q71F77)", "type": "biochemical", "details": "substrate AZT", "experimental": "as §1"}, "[3]": {"assay": "Cell proliferation (XTT), sensitivity to AZT", "type": "cell-based", "details": "Homo sapiens, U-87 MG, 120 h, 5 days of drug exposure", "experimental": "(§2) Arabidopsis constructs based on AT-TK1a were cut with BamHI/XhoI, and tomato PCR fragments were cut with BglII/XhoI, and cloned into the BglII-XhoI site of plasmid vector pLCXSN, which is a retroviral transfer vector derived from pLXSN (Clontech, cat# K1060-B) by insertion of the CMV promoter upstream of the polylinker.\n(§3) Each experiment was performed in four replicates."}, "[4]": {"system": "glioblastoma U-87 MG cells transduced with PZG53: AtTK1 (AT-TK1a, Arabidopsis thaliana, SEQ ID NO: 9)", "assay": "Cell proliferation (XTT), sensitivity to AZT", "type": "cell-based", "details": "Homo sapiens, 120 h, 5 days of drug exposure", "experimental": "as §2, §3"}, "[5]": {"system": "glioblastoma U-87 MG cells transduced with pLCXSN (retroviral vector alone)", "assay": "cells", "details": "Homo sapiens, 120 h, 5 days of drug exposure"}, "[6]": {"system": "glioblastoma U-87 MG cells transduced with PZG69: TomTK1 (tomato TK1, SEQ ID NO: 4)", "assay": "cells", "details": "Homo sapiens, 120 h, 5 days of drug exposure", "experimental": "as §2, §3"}, "[7]": {"target": "T1, rAT-ΔN45TK1b, Arabidopsis thaliana thymidine kinase AT-TK1b (SEQ ID NO: 13) with N-terminal deletion of 45 amino acids (Arabidopsis thaliana, UniProt F4KBF5)", "T1 sequence (F4KBF5 51-282)": "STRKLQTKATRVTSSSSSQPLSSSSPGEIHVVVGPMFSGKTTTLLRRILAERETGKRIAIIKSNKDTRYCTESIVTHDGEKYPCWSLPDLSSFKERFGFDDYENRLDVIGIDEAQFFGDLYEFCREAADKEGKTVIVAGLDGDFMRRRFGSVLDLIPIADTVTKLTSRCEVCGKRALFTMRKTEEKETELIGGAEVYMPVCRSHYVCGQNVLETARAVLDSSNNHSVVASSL", "assay": "Kinetic constants of purified recombinant thymidine kinase (rAT-ΔN45TK1b)", "type": "biochemical, thale cress (Arabidopsis thaliana)", "details": "substrate AZT", "experimental": "An N-terminal deletion of 45 amino acids was achieved by using the primers\nThe resulting plasmid was named pGEX-2T-AT-ΔN45TK1b (P663).\nas §1"}, "[8]": {"target": "T2, rAT-TK1a, Arabidopsis thaliana thymidine kinase AT-TK1a, recombinant wild type, SEQ ID NO: 9 (Arabidopsis thaliana, UniProt Q9S750)", "assay": "Kinetic constants of purified recombinant thymidine kinase (rAT-TK1a)", "type": "biochemical, thale cress (Arabidopsis thaliana)", "details": "substrate AZT", "experimental": "as §1"}, "[9]": {"system": "glioblastoma U-87 MG cells transduced with HSV1-TK (human Herpes simplex virus type 1 thymidine kinase)", "assay": "Cell proliferation (XTT), sensitivity to AZT", "type": "cell-based", "details": "120 h, 5 days of drug exposure", "experimental": "as §3"}, "[10]": {"system": "Glioblastoma U-87 MG", "assay": "Cell proliferation assay (XTT), sensitivity to AZT of transduced cells", "type": "cell-based", "details": "Homo sapiens, parental U-87 MG, construct None", "experimental": "293T packaging cells (ATTC CRL-11268) were cultured at 37° C. in OPTIMEM 1 medium (Life Technologies, Inc.). The constructed pLCXSN plasmid vector was transfected into the packaging cells using LipofectAMINE PLUS (Life Technology Inc.) according to the protocol provided by the supplier. The medium from the transfected cells was collected 48 hours after transfection, filtered through a […] filter, pelleted by ultracentrifugation (50,000×g, 90 minutes at 4° C.) and dissolved in TEN buffer (100 mM NaCl, 10 mM Tris pH 7.5, 1 mM EDTA).\nThe virus-containing buffer was subsequently used to transduce the cancer cell lines with MOI of 5.\nas §3"}, "[11]": {"target": "T2, rAT-TK1a, Arabidopsis thaliana thymidine kinase AT-TK1a, recombinant wild type, SEQ ID NO: 9", "details": "substrate Thd, data from Le Breton C, B. Sc. Report 2002, cited from earlier work"}, "[12]": {"target": "T1, rAT-ΔN45TK1b, Arabidopsis thaliana thymidine kinase AT-TK1b (SEQ ID NO: 13) with N-terminal deletion of 45 amino acids", "details": "substrate Thd; data from Le Breton C, B. Sc. Report 2002; cited from earlier work"}, "[13]": {"assay": "dTMP kinase activity (monophosphate to diphosphate)", "type": "biochemical", "details": "30 mU enzyme, 100 μM 3H-labelled substrate, 0 to 120 minutes", "experimental": "(§4) 5 μl, of this mixture were plated on polyethylenimine-cellulose plates, which were developed ascending in 0.5 M […]. The spots with the nucleosides and nucleotides were identified under UV light and cut out.\nThe radioactivity in the spots was extracted with 0.2 M KCl in 0.1 M HCl, and determined by liquid scintillation counting. 1 pmol radioactive nucleoside/tide counts 850 cpm.\nThe cpm obtained at the indicated times (15, 30, 60, 90 and 120 minutes, respectively) are determined in the TDP spots derived from 2.5 μl of the reaction mixture."}, "[14]": {"assay": "AZT monophosphate kinase activity", "type": "biochemical", "details": "30 mU enzyme, 100 μM 3H-labelled substrate", "experimental": "as §4\nThe radioactivity in the spots was extracted with 0.2 M KCl in 0.1 M HCl, and determined by liquid scintillation counting. 1 pmol radioactive nucleoside/tide counts 850 cpm. […]"}, "[15]": {"assay": "Kinetic constants of purified recombinant TK, substrate AZT", "details": "from Tables 6 and 7"}, "[16]": {"details": "transient polyclonal cell lines"}}, "note": "Like-named read-outs stand apart in the source and are kept apart here.", "data": [{"molecule": "Cc1cn([C@H]2C[C@H](N=[N+]=[N-])[C@@H](CO)O2)c(=O)[nH]c1=O", "note": "[AZT, 3′-azido-3′-deoxythymidine]", "values": [{"measurement": "Km", "setting": "[1]; read-out: Km for AZT", "value": 1.7, "unit": "µM"}, {"measurement": "Vmax for AZT", "setting": "[1]", "value": 4.1, "unit": "mU/mg"}, {"measurement": "kcat for AZT", "setting": "[1]", "value": 0.028, "unit": "s⁻¹"}, {"measurement": "Km", "setting": "[2]", "value": 22.4, "unit": "µM"}, {"measurement": "Vmax for AZT", "setting": "[2]", "value": 1579, "unit": "mU/mg"}, {"measurement": "kcat for AZT", "setting": "[2]", "value": 0.681, "unit": "s⁻¹"}, {"measurement": "IC50", "setting": "[3]; stable polyclonal cell lines, cells transduced with PZG56 construct", "value": 132, "unit": "µM"}, {"measurement": "IC50", "setting": "[3]; stable polyclonal cell lines, cells transduced with PZG59 construct", "value": 25.1, "unit": "µM"}, {"measurement": "IC50", "setting": "[3]; transient polyclonal cell lines, cells transduced with PZG56 construct", "value": 303, "unit": "µM"}, {"measurement": "IC50", "setting": "[3]; transient polyclonal cell lines, cells transduced with PZG59 construct", "value": 26, "unit": "µM"}, {"measurement": "IC50", "setting": "[4]; stable polyclonal cell lines", "value": 71.9, "unit": "µM"}, {"measurement": "IC50", "setting": "[4]; [16]", "value": 97, "unit": "µM"}, {"measurement": "IC50", "setting": "[5]; stable polyclonal cell lines", "value": 4070, "unit": "µM"}, {"measurement": "IC50", "setting": "[5]; [16]", "value": "> 5000", "unit": "µM"}, {"measurement": "IC50", "setting": "[6]; stable polyclonal cell lines", "value": 17, "unit": "µM"}, {"measurement": "IC50", "setting": "[6]; [16]", "value": 47, "unit": "µM"}, {"measurement": "Vmax for AZT", "setting": "[7]", "value": 242, "unit": "mU/mg"}, {"measurement": "kcat for AZT", "setting": "[7]", "value": 0.104, "unit": "s⁻¹"}, {"measurement": "Km", "setting": "[8]", "value": 3.55, "unit": "µM"}, {"measurement": "Vmax for AZT", "setting": "[8]", "value": 244, "unit": "mU/mg"}, {"measurement": "kcat for AZT", "setting": "[8]", "value": 0.106, "unit": "s⁻¹"}, {"measurement": "IC50", "setting": "[9]; stable polyclonal cell lines", "value": 2580, "unit": "µM"}, {"measurement": "IC50", "setting": "[9]; [16]", "value": "> 5000", "unit": "µM"}, {"measurement": "IC50", "setting": "[10]; listed under stable polyclonal cell lines", "value": 2440, "unit": "µM"}, {"measurement": "IC50", "setting": "[10]; listed under transient polyclonal cell lines", "value": 4470, "unit": "µM"}]}, {"molecule": "Cc1cn([C@H]2C[C@H](O)[C@@H](CO)O2)c(=O)[nH]c1=O", "note": "[Thd, thymidine]", "values": [{"measurement": "Km", "setting": "[11]; read-out: Km for Thd", "value": 85, "unit": "µM"}, {"measurement": "Vmax for Thd", "setting": "[11]", "value": 452, "unit": "mU/mg"}, {"measurement": "kcat for Thd", "setting": "[11]", "value": 0.2, "unit": "s⁻¹"}, {"measurement": "Vmax for Thd", "setting": "[12]", "value": 165, "unit": "mU/mg"}, {"measurement": "kcat for Thd", "setting": "[12]", "value": 0.071, "unit": "s⁻¹"}]}, {"molecule": "HSV1-TK: human Herpes simplex virus type 1 thymidine kinase, control; in Table 4 expressed from the pLCXSN vector, in Example 6 purified enzyme", "values": [{"measurement": "phosphorylation of TMP to TDP", "setting": "[13]", "value": "phosphorylates both substrates"}, {"measurement": "degree of phosphorylation of AZT-monophosphate, lower than the thymidine substrate", "setting": "[14]", "value": 10, "unit": "fold"}, {"measurement": "phosphorylation of AZT-monophosphate", "setting": "[14]; 0 to 120 minutes", "value": "phosphorylates both substrates"}]}, {"molecule": "B1", "values": [{"measurement": "ratio [kcat/Km (Thd)]/[kcat/Km (AZT)]", "setting": "[15]", "value": 1.07}]}, {"molecule": "B2", "values": [{"measurement": "ratio [kcat/Km (Thd)]/[kcat/Km (AZT)]", "setting": "[15]", "value": 0.08}]}]}
